Source: ChEMBL document CHEMBL5528002, “Identification of selective 5-LOX and FLAP inhibitors as novel anti-inflammatory agents by ligand-based virtual screening” (Eur J Med Chem, 2024)

Columns and labels:
[1] = molecular target: T1, Polyunsaturated fatty acid 5-lipoxygenase (Homo sapiens, UniProt P09917); test: Inhibition of human recombinant 5-LOX expressed in Escherichia coli BL21(DE3) using arachidonic acid as substrate preincubated with compound for 15 mins followed by substrate and CaCl2 addition measured after 10 mins by RP-HPLC analysis
T1 sequence (P09917 whole entry): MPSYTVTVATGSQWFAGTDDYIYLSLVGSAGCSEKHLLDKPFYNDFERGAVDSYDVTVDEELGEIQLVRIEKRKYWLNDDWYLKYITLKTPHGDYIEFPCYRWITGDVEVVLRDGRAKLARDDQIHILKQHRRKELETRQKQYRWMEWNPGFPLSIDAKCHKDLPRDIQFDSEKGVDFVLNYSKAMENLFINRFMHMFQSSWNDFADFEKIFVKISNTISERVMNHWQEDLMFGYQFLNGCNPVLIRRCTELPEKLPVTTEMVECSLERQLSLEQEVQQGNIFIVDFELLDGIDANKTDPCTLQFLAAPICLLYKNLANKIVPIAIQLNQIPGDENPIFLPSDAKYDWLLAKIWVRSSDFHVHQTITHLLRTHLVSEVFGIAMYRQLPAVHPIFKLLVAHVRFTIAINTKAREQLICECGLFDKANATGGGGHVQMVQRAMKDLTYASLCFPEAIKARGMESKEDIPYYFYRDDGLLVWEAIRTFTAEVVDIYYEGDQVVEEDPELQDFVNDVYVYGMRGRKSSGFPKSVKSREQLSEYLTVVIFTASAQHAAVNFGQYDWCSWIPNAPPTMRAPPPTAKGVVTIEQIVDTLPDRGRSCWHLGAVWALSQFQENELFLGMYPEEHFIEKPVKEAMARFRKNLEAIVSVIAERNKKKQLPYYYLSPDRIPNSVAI

[2] = molecular target: T1, Polyunsaturated fatty acid 5-lipoxygenase; test: Inhibition of 5-LOX in human Neutrophil using arachidonic acid as substrate preincubated with compound for 15 mins followed by substrate and A23187 addition measured after 10 mins by RP-HPLC analysis; assay type: cell-based
Macrophage cell line [3] = test: Effect on lipid mediator formation in human M1-like phenotype MDM cells by measuring 14-HDHA formation at 10 uM pre-incubated for 15 mins followed by SACM stimulation and measured after 90 mins by UPLC-MS/MS analysis (reference value: 100 +/- 21 pg/ml); assay type: functional; settings: time 105 min, 1.75 h
Macrophage cell line [4] = test: Effect on lipid mediator formation in human M1-like phenotype MDM cells by measuring DHA formation at 10 uM pre-incubated for 15 mins followed by SACM stimulation and measured after 90 mins by UPLC-MS/MS analysis (reference value: 66334 +/- 8894 pg/ml); assay type: functional; settings: time 105 min, 1.75 h
Macrophage cell line [5] = test: Effect on lipid mediator formation in human M1-like phenotype MDM cells by measuring 5-HEPE formation at 10 uM pre-incubated for 15 mins followed by SACM stimulation and measured after 90 mins by UPLC-MS/MS analysis relative to control; assay type: functional; settings: time 105 min, 1.75 h
Macrophage cell line [6] = test: Effect on lipid mediator formation in human M1-like phenotype MDM cells by measuring t-LTB4 formation at 10 uM pre-incubated for 15 mins followed by SACM stimulation and measured after 90 mins by UPLC-MS/MS analysis relative to control; assay type: functional; settings: time 105 min, 1.75 h
Macrophage cell line [7] = test: Effect on lipid mediator formation in human M1-like phenotype MDM cells by measuring LTB4 formation at 10 uM pre-incubated for 15 mins followed by SACM stimulation and measured after 90 mins by UPLC-MS/MS analysis relative to control; assay type: functional; settings: time 105 min, 1.75 h
Macrophage cell line [8] = test: Effect on lipid mediator formation in human M1-like phenotype MDM cells by measuring 15-HEPE formation at 10 uM pre-incubated for 15 mins followed by SACM stimulation and measured after 90 mins by UPLC-MS/MS analysis relative to control; assay type: functional; settings: time 105 min, 1.75 h
Macrophage cell line [9] = test: Effect on lipid mediator formation in human M1-like phenotype MDM cells by measuring 12-HEPE formation at 10 uM pre-incubated for 15 mins followed by SACM stimulation and measured after 90 mins by UPLC-MS/MS analysis relative to control; assay type: functional; settings: time 105 min, 1.75 h
Macrophage cell line [10] = test: Effect on lipid mediator formation in human M2-like phenotype MDM cells by measuring 5-HETE formation at 10 uM pre-incubated for 15 mins followed by SACM stimulation and measured after 90 mins by UPLC-MS/MS analysis (reference value: 4812 +/- 561 pg/ml); assay type: functional; settings: time 105 min, 1.75 h
Macrophage cell line [11] = test: Effect on lipid mediator formation in human M2-like phenotype MDM cells by measuring 5S,6R-diHETE formation at 10 uM pre-incubated for 15 mins followed by SACM stimulation and measured after 90 mins by UPLC-MS/MS analysis (reference value: 206 +/- 47 pg/ml); assay type: functional; settings: time 105 min, 1.75 h
Macrophage cell line [12] = test: Effect on lipid mediator formation in human M2-like phenotype MDM cells by measuring PGF2alpha formation at 10 uM pre-incubated for 15 mins followed by SACM stimulation and measured after 90 mins by UPLC-MS/MS analysis (reference value: 72 +/- 21 pg/ml); assay type: functional; settings: time 105 min, 1.75 h
Macrophage cell line [13] = test: Effect on lipid mediator formation in human M2-like phenotype MDM cells by measuring 12-HETE formation at 10 uM pre-incubated for 15 mins followed by SACM stimulation and measured after 90 mins by UPLC-MS/MS analysis (reference value: 3325 +/- 789 pg/ml); assay type: functional; settings: time 105 min, 1.75 h
Macrophage cell line [14] = test: Effect on lipid mediator formation in human M2-like phenotype MDM cells by measuring MaR2 formation at 10 uM pre-incubated for 15 mins followed by SACM stimulation and measured after 90 mins by UPLC-MS/MS analysis (reference value: 16 +/- 1 pg/ml); assay type: functional; settings: time 105 min, 1.75 h
Macrophage cell line [15] = test: Effect on lipid mediator formation in human M2-like phenotype MDM cells by measuring RvD2 formation at 10 uM pre-incubated for 15 mins followed by SACM stimulation and measured after 90 mins by UPLC-MS/MS analysis (reference value: 6 +/- 1 pg/ml); assay type: functional; settings: time 105 min, 1.75 h
Macrophage cell line [16] = test: Effect on lipid mediator formation in human M2-like phenotype MDM cells by measuring 5-HEPE formation at 10 uM pre-incubated for 15 mins followed by SACM stimulation and measured after 90 mins by UPLC-MS/MS analysis relative to control; assay type: functional; settings: time 105 min, 1.75 h
Macrophage cell line [17] = test: Effect on lipid mediator formation in human M2-like phenotype MDM cells by measuring t-LTB4 formation at 10 uM pre-incubated for 15 mins followed by SACM stimulation and measured after 90 mins by UPLC-MS/MS analysis relative to control; assay type: functional; settings: time 105 min, 1.75 h
Macrophage cell line [18] = test: Effect on lipid mediator formation in human M2-like phenotype MDM cells by measuring 4-HDHA formation at 10 uM pre-incubated for 15 mins followed by SACM stimulation and measured after 90 mins by UPLC-MS/MS analysis relative to control; assay type: functional; settings: time 105 min, 1.75 h
Macrophage cell line [19] = test: Effect on lipid mediator formation in human M2-like phenotype MDM cells by measuring PDX1 formation at 10 uM pre-incubated for 15 mins followed by SACM stimulation and measured after 90 mins by UPLC-MS/MS analysis relative to control; assay type: functional; settings: time 105 min, 1.75 h
Macrophage cell line [20] = test: Effect on lipid mediator formation in human M2-like phenotype MDM cells by measuring arachidonic acid formation at 10 uM pre-incubated for 15 mins followed by SACM stimulation and measured after 90 mins by UPLC-MS/MS analysis relative to control; assay type: functional; settings: time 105 min, 1.75 h

SMILES	IC50 [1] [µM]	IC50 [2] [µM]	Activity (Macrophage cell line [3]) [pg/mL]	Activity (Macrophage cell line [4]) [pg/mL]	Activity (Macrophage cell line [5]) [%]	Activity (Macrophage cell line [6]) [%]	Activity (Macrophage cell line [7]) [%]	Activity (Macrophage cell line [8]) [%]	Activity (Macrophage cell line [9]) [%]	Activity (Macrophage cell line [10]) [pg/mL]	Activity (Macrophage cell line [11]) [pg/mL]	Activity (Macrophage cell line [12]) [pg/mL]	Activity (Macrophage cell line [13]) [pg/mL]	Activity (Macrophage cell line [14]) [pg/mL]	Activity (Macrophage cell line [15]) [pg/mL]	Activity (Macrophage cell line [16]) [%]	Activity (Macrophage cell line [17]) [%]	Activity (Macrophage cell line [18]) [%]	Activity (Macrophage cell line [19]) [%]	Activity (Macrophage cell line [20]) [%]
Oc1ccc(CCC2CCC(c3ccc(O)cc3)CO2)cc1 (stereo not given)	> 10	2.1	88	62371	18	8	6	97	90	1181	14	58	4047	31	5	34	20	100	116	113
COc1ccc(C2=C/C(=C/c3ccc(O)cc3O)C(=O)O2)cc1	> 10	0.9	93	71742	11	8	8	98	92	450	8	89	3796	36	6	18	11	85	144	103
